Experimental data published in the supplement of paper PMC13380429.

How the values were obtained:
A549-ACE2 [1] = test: drug-induced phospholipidosis relative to tamoxifen; higher = more phospholipidosis
[2] = test system: A549-ACE2 infected with SARS-CoV-2; test: cell count relative to DMSO; higher = less toxic; details: 24 h
U2OS [3] = test: cell viability relative to DMSO; higher = less toxic; details: 72 h
Calu-3 [4] = test: as above; details: 72 h
Vero E6 [5] = test: as above; details: 72 h
Caco-2 [6] = test: as above; details: 72 h
HepG2 [7] = test: as above; details: 72 h
[8] = test system: A549-ACE2 infected with SARS-CoV-2; test: SARS-CoV-2 infection rate relative to DMSO; higher = more infection; details: 24 h
A549-ACE2 [9] = test: phospholipidosis EC50; higher = less potent phospholipidosis inducer
U2OS [10] = test: drug sensitivity score (DSS) for viability; higher = more toxic; extreme values may be limits of the assay; details: 72 h
Calu-3 [11] = test: as above; details: 72 h
Vero E6 [12] = test: as above; details: 72 h
Caco-2 [13] = test: as above; details: 72 h
HepG2 [14] = test: as above; details: 72 h
U2OS [15] = test: relative viability EC50 (midpoint between 100% and the lowest measured viability); higher = less toxic; details: 72 h
Calu-3 [16] = test: as above; details: 72 h
Vero E6 [17] = test: as above; details: 72 h
Caco-2 [18] = test: as above; details: 72 h
HepG2 [19] = test: as above; details: 72 h
[20] = test system: A549-ACE2 infected with SARS-CoV-2; test: morphology score (similarity to uninfected cells); higher = more like uninfected cells; details: 24 h

COc1cc2c(NC3CCN(C(C)C)CC3)nc(C3CCCCC3)nc2cc1OCCCN1CCCC1 [UNC0638]
drug-induced phospholipidosis [%], A549-ACE2 [1]
Details | 0.3 µM | 0.833333 µM | 3.33333 µM | 6.66667 µM | 10 µM | 30 µM
24 h | 19 | 47.5 | 80.5 | 93.8 | 106 | 38.3
48 h | 20.5 | 48.8 | 76.7 | 97.3 | 89.8 | –
72 h | 16 | 32 | 73.7 | 84.2 | 95.7 | –

Details | SARS-CoV-2 infection rate [%] | cell count [%] | cell viability [%] | morphology score | phospholipidosis EC50 [µM]
A549-ACE2 [9], 24 h | – | – | – | – | 0.85
A549-ACE2 [9], 48 h | – | – | – | – | 0.916
A549-ACE2 [9], 72 h | – | – | – | – | 2.15
Caco-2 [6], 1 nM | – | – | 99.2 | – | –
Caco-2 [6], 10 nM | – | – | 95.3 | – | –
Caco-2 [6], 100 nM | – | – | 98.5 | – | –
Caco-2 [6], 1000 nM | – | – | 96.7 | – | –
Caco-2 [6], 10000 nM | – | – | 90.3 | – | –
Calu-3 [4], 1 nM | – | – | 108 | – | –
Calu-3 [4], 10 nM | – | – | 106 | – | –
Calu-3 [4], 100 nM | – | – | 105 | – | –
Calu-3 [4], 1000 nM | – | – | 109 | – | –
Calu-3 [4], 10000 nM | – | – | 14.4 | – | –
HepG2 [7], 1 nM | – | – | 91.9 | – | –
HepG2 [7], 10 nM | – | – | 103 | – | –
HepG2 [7], 100 nM | – | – | 107 | – | –
HepG2 [7], 1000 nM | – | – | 114 | – | –
HepG2 [7], 10000 nM | – | – | 28.9 | – | –
U2OS [3], 1 nM | – | – | 103 | – | –
U2OS [3], 10 nM | – | – | 104 | – | –
U2OS [3], 100 nM | – | – | 99.7 | – | –
U2OS [3], 1000 nM | – | – | 98.5 | – | –
U2OS [3], 10000 nM | – | – | 79.5 | – | –
Vero E6 [5], 1 nM | – | – | 104 | – | –
Vero E6 [5], 10 nM | – | – | 106 | – | –
Vero E6 [5], 100 nM | – | – | 101 | – | –
Vero E6 [5], 1000 nM | – | – | 99.2 | – | –
Vero E6 [5], 10000 nM | – | – | 91.5 | – | –
[2], 0.3 µM | – | 104 | – | – | –
[2], 3 µM | – | 120 | – | – | –
[2], 10 µM | – | 120 | – | – | –
[2], 30 µM | – | 85 | – | – | –
[8], 0.3 µM | 92 | – | – | – | –
[8], 3 µM | 21 | – | – | – | –
[8], 10 µM | 13 | – | – | – | –
[8], 30 µM | 37 | – | – | – | –
[20], 0.3 µM | – | – | – | 0.28 | –
[20], 3 µM | – | – | – | 0.76 | –
[20], 10 µM | – | – | – | 0.07 | –
[20], 30 µM | – | – | – | -0.22 | –

Details | drug sensitivity score | relative viability EC50 [µM]
Caco-2 [13] | 0 | –
Caco-2 [18] | – | > 10
Calu-3 [11] | 4.1 | –
Calu-3 [16] | – | 3.67
HepG2 [14] | 3.1 | –
HepG2 [19] | – | 3.92
U2OS [10] | 0.8 | –
U2OS [15] | – | > 10
Vero E6 [12] | 0 | –
Vero E6 [17] | – | > 10

O=C(Nc1ccc(-c2ccnc(Nc3ccc(N4CCOCC4)cc3)n2)cc1)C1CCCN1 (stereo not given) [XL019]
drug-induced phospholipidosis [%], A549-ACE2 [1]
Details | 0.3 µM | 0.833333 µM | 3.33333 µM | 6.66667 µM | 10 µM | 30 µM
24 h | -0.79 | -8.22 | -5.43 | 0.07 | 5.79 | 96.9
48 h | 3.03 | -8.76 | -8.92 | -8.57 | -5.17 | 83.3
72 h | 5.53 | -8.19 | -8.71 | -9.82 | -6.36 | –

Details | SARS-CoV-2 infection rate, [8] [%] | cell count, [2] [%] | cell viability, Caco-2 [6] [%] | cell viability, Calu-3 [4] [%] | cell viability, HepG2 [7] [%] | cell viability, U2OS [3] [%] | cell viability, Vero E6 [5] [%] | morphology score, [20]
1 nM | – | – | 89.4 | 109 | 95.1 | 97.9 | 102 | –
10 nM | – | – | 99.2 | 98 | 96.3 | 97.5 | 102 | –
100 nM | – | – | 98.7 | 107 | 89.9 | 98 | 98.5 | –
0.3 µM | 100 | 98 | – | – | – | – | – | 0.04
1000 nM | – | – | 94.2 | 122 | 88.1 | 96.5 | 94.5 | –
3 µM | 101 | 99 | – | – | – | – | – | -0.09
10 µM | 86 | 109 | – | – | – | – | – | 0.26
10000 nM | – | – | 86.5 | 119 | 67.5 | 90.6 | 94.6 | –
30 µM | 46 | 109 | – | – | – | – | – | 0.33

Details | drug sensitivity score | relative viability EC50 [µM]
Caco-2 [13] | 0 | –
Caco-2 [18] | – | > 10
Calu-3 [11] | 0 | –
Calu-3 [16] | – | > 10
HepG2 [14] | 2.8 | –
U2OS [10] | 0 | –
U2OS [15] | – | > 10
Vero E6 [12] | 0 | –
Vero E6 [17] | – | > 10

CCOC(=O)C1=C(COCCN)NC(C)=C(C(=O)OC)C1c1ccccc1Cl (stereo not given) [amlodipine]
drug-induced phospholipidosis [%], A549-ACE2 [1]
Details | 0.3 µM | 0.833333 µM | 3.33333 µM | 6.66667 µM | 10 µM | 30 µM
24 h | 4.07 | -2.24 | 14.4 | 39.7 | 58.4 | 105
48 h | 3.72 | 0.34 | 10.8 | 17.5 | 37 | 187
72 h | 5.62 | -0.058 | 6.8 | 13.1 | 21 | 181

Details | SARS-CoV-2 infection rate [%] | cell count [%] | cell viability [%] | morphology score | phospholipidosis EC50 [µM]
A549-ACE2 [9], 24 h | – | – | – | – | 10.9
Caco-2 [6], 1 nM | – | – | 97.9 | – | –
Caco-2 [6], 10 nM | – | – | 102 | – | –
Caco-2 [6], 100 nM | – | – | 98.2 | – | –
Caco-2 [6], 1000 nM | – | – | 93.5 | – | –
Caco-2 [6], 10000 nM | – | – | 94.2 | – | –
Calu-3 [4], 1 nM | – | – | 93.6 | – | –
Calu-3 [4], 10 nM | – | – | 104 | – | –
Calu-3 [4], 100 nM | – | – | 94.1 | – | –
Calu-3 [4], 1000 nM | – | – | 102 | – | –
Calu-3 [4], 10000 nM | – | – | 93.9 | – | –
HepG2 [7], 1 nM | – | – | 97.7 | – | –
HepG2 [7], 10 nM | – | – | 98.1 | – | –
HepG2 [7], 100 nM | – | – | 91.2 | – | –
HepG2 [7], 1000 nM | – | – | 99.2 | – | –
HepG2 [7], 10000 nM | – | – | 96.4 | – | –
U2OS [3], 1 nM | – | – | 94.8 | – | –
U2OS [3], 10 nM | – | – | 102 | – | –
U2OS [3], 100 nM | – | – | 96.6 | – | –
U2OS [3], 1000 nM | – | – | 101 | – | –
U2OS [3], 10000 nM | – | – | 97.5 | – | –
Vero E6 [5], 1 nM | – | – | 96.7 | – | –
Vero E6 [5], 10 nM | – | – | 90.2 | – | –
Vero E6 [5], 100 nM | – | – | 91.1 | – | –
Vero E6 [5], 1000 nM | – | – | 84.8 | – | –
Vero E6 [5], 10000 nM | – | – | 96.1 | – | –
[2], 0.3 µM | – | 96 | – | – | –
[2], 3 µM | – | 112 | – | – | –
[2], 10 µM | – | 119 | – | – | –
[2], 30 µM | – | 91 | – | – | –
[8], 0.3 µM | 107 | – | – | – | –
[8], 3 µM | 79 | – | – | – | –
[8], 10 µM | 23 | – | – | – | –
[8], 30 µM | 30 | – | – | – | –
[20], 0.3 µM | – | – | – | -0.27 | –
[20], 3 µM | – | – | – | 0.49 | –
[20], 10 µM | – | – | – | 0.92 | –
[20], 30 µM | – | – | – | 0.35 | –

Details | drug sensitivity score | relative viability EC50 [µM]
Caco-2 [13] | 0 | –
Caco-2 [18] | – | > 10
Calu-3 [11] | 0 | –
Calu-3 [16] | – | > 10
HepG2 [14] | 0 | –
HepG2 [19] | – | > 10
U2OS [10] | 0 | –
U2OS [15] | – | > 10
Vero E6 [12] | 0 | –
Vero E6 [17] | – | > 10

C=C1C(=O)O[C@@H]2[C@H]3C(C)=CC[C@@]34O[C@@]4(C)CC[C@@H]12 [arglabin]
drug-induced phospholipidosis [%], A549-ACE2 [1]
Details | 0.3 µM | 0.833333 µM | 3.33333 µM | 6.66667 µM | 10 µM | 30 µM
24 h | 2.94 | -0.34 | 2.52 | 0.97 | 8.21 | -1.1
48 h | 2.9 | 0.06 | 1.52 | 0.03 | 4.18 | –
72 h | 2.96 | -0.707 | 0.896 | 0.278 | 0.729 | –

Details | SARS-CoV-2 infection rate, [8] [%] | cell count, [2] [%] | cell viability, Caco-2 [6] [%] | cell viability, Calu-3 [4] [%] | cell viability, HepG2 [7] [%] | cell viability, U2OS [3] [%] | cell viability, Vero E6 [5] [%] | morphology score, [20]
1 nM | – | – | 91.6 | 90.2 | 96.1 | 97.1 | 110 | –
10 nM | – | – | 97.8 | 99.8 | 92.2 | 102 | 99.2 | –
100 nM | – | – | 100 | 88.3 | 96.7 | 100 | 110 | –
0.3 µM | 105 | 96 | – | – | – | – | – | 0.02
1000 nM | – | – | 104 | 105 | 98.2 | 105 | 103 | –
3 µM | 94 | 100 | – | – | – | – | – | 0.01
10 µM | 95 | 78 | – | – | – | – | – | -0.15
10000 nM | – | – | 58.2 | 68 | 56.1 | 76.5 | 104 | –
30 µM | 33 | 36 | – | – | – | – | – | 0.3

Details | drug sensitivity score | relative viability EC50 [µM]
Caco-2 [13] | 1.8 | –
Calu-3 [11] | 1.2 | –
HepG2 [14] | 2.5 | –
U2OS [10] | 0.6 | –
U2OS [15] | – | > 10
Vero E6 [12] | 0 | –
Vero E6 [17] | – | > 10
